≈ marks a conversion by molar mass, not a printed value. Where two headings read alike, the source gives them in different places.
Assays:
C. glabrata (ATCC 2001) [1] = assay: Secondary C. glabrata inhibition in glycerol media (OD600); assay type: cell-based, Candida glabrata; details: for IC50: read-out: Growth Inhibition Activity, IC50 (μM), C. glabrata (n = 3) On glycerol
Description: (§1) Cell Lines. • Candida albicans CaCi-2; a drug-resistant clinical isolate was provided by the Whitehead Institute (Redding et al., Clin. Infect. Dis. 1994, 18(2):240-2). This strain was used for the primary assay. • Candida albicans CaCi-17; a strongly drug-resistant clinical isolate was provided by the Whitehead Institute (Redding et al., Clin. Infect. Dis. 1994, 18(2):240-2). This strain was used for the primary assay • Saccharyomyces cerevisiae W303-1a (ATCC 208352); a well-characterized Saccharomyces strain used for determination of glycolytic vs. respiratory metabolism, as well as in the mitochondrial disruption assay. • Candida glabrata (ATCC 2001); used for determination of glycolytic vs. respiratory metabolism. • NIH-3T3 mammalian fibroblasts (ATCC; CRL no.1658); used for mammalian toxicity assays. […]
(§2) Saccharomyces, while not a major human pathogen, is a useful lab model with well-developed genetic tools available. Candida glabrata is an increasingly prominent clinical problem for immune-compromised patients but with fewer genetic tools available with which to study it. These organisms can utilize alternative metabolic pathways to support growth and survival depending on the carbon source. By comparing the concentration-dependent inhibition of yeast growth in glycerol relative to glucose media, a quantitative assessment of a compound's ability to disrupt respiration can be determined. […].
(§3) Clear, flat bottom, black 384-well plates (Corning Catalog no. 3712BC; Lot no. 35808016); Amphotericin B (Sigma Catalog no. A2411) 15 mM stock solution in DMSO; Pen/Strep (Gibco Catalog no. 10378-016; Lot no21040170) 100× in PBS.
(§4) Synthetic defined growth medium. Complete Supplement Mixture; (Sunrise Science, Catalog No. 1001-100); Yeast Nitrogen Base without ammonium sulfate (MP Biomedicals, Catalog No. 4027-012); Glycerol (Sigma Catalog No. G-9012). • Prepare medium by dissolving 0.79 g Complete Supplement Mixture and 1.7 g Yeast Nitrogen Base in 800 mL water. • Add 20 mL of glycerol. Adjust final volume to 1000 mL. Filter sterilize.
(§5) Fungal Inoculum. Test Strains: C. glabrata (ATCC 2001) and Saccharomyces cerevisiae W303. • Inoculate 100 μL of yeast from cryopreserved stock into 250 mL shaker flask containing 20 mL growth medium. Shake at 30° C. overnight (about 16 hours). • Read OD 600 of 1 mL of fungal culture in a cuvette using a standard optical density reader (Eppendorf BioPhotometer Plus), with growth medium as a background blank. • Dilute to desired volume of fungal inoculum to produce an OD600 reading of 0.005 (S. cerevisiae) or 0.004 (C. glabrata).
(§6) Procedures • Use a Thermo Combi nL to dispense 20 μL/well of assay media into all wells. • Add 2 μL of Amphotericin B to control wells. • Pin 100 nL of test compound from compound plates into assay plates using a CyBi-Well pin tool. • Dispense 20 μL/well of culture into the assay media in all wells. • Incubate the plates in a humidified (90% humidity) Liconic incubator at 37° C. without agitation for 48 hours. • Shake plates briefly. • Read OD600 of wells on a standard plate reader as measure of relative fungal growth. Envision (Perkin Elmer) plate reader settings: Ex Photometric 600, Top read. Secondary Glucose Assay Protocol (AID 623971, 623967, 624013, 624025) Materials and Reagents

C. glabrata (ATCC 2001) [2] = assay: Secondary C. glabrata inhibition in glucose media (OD600); assay type: cell-based, Candida glabrata; details: for IC50: read-out: Growth Inhibition Activity, IC50 (μM), C. glabrata (n = 3) On glucose
Description: as §1, §2, §6
(§7) Clear, flat bottom, black 384-well plates (Corning, Catalog No. 3712BC; Lot No. 35808016); Amphotericin B (Sigma, Catalog no. A2411) 15 mM stock solution in DMSO; Pen/Strep (Gibco, Catalog No. 10378-016; Lot no21040170) 100× in PBS.
(§8) Synthetic defined growth medium. Complete Supplement Mixture; (Sunrise Science, Catalog No. 1001-100); Yeast Nitrogen Base without ammonium sulfate (MP Biomedicals, Catalog No. 4027-012); Glucose (Sigma, Catalog No. G7021). • Prepare medium by dissolving 0.79 g of Complete Supplement Mixture and 1.7 g of Yeast Nitrogen Base in 800 mL of water. • Add 20 g of glucose. Adjust final volume to 1000 mL. Filter sterilize.
as §5, with “Inoculate […] of yeast” for “Inoculate 100 μL of yeast”, “stock into a 250 mL” for “stock into 250 mL”, “20 mL of growth medium.” for “20 mL growth medium.”
as §6, with “read. 4.5.” for “read.”, “Mitochondrial Disruption” for “Glucose”, “Assay” for “Assay Protocol”, “No. 624062” for “623971, 623967, 624013, 624025) Materials”, “624068)” for “Reagents”

[3] = test system: Saccharomyces cerevisiae W303; assay: Secondary S. cerevisiae inhibition in glycerol media (OD600); assay type: cell-based; details: for IC50: read-out: Growth Inhibition Activity, IC50 (μM), S. cerevisiae (n = 3) On glycerol
Description: as §1, §2, §3, §4, §5, §6

[4] = test system: Saccharomyces cerevisiae W303; assay: Secondary S. cerevisiae inhibition in glucose media (OD600); assay type: cell-based; details: for IC50: read-out: Growth Inhibition Activity, IC50 (μM), S. cerevisiae (n = 3) On glucose
Description: as §1, §2, §6, §7, §8
as §5, with “Inoculate […] of yeast” for “Inoculate 100 μL of yeast”, “stock into a 250 mL” for “stock into 250 mL”, “20 mL of growth medium.” for “20 mL growth medium.”
as §6, with “read. 4.5.” for “read.”, “Mitochondrial Disruption” for “Glucose”, “Assay” for “Assay Protocol”, “No. 624062” for “623971, 623967, 624013, 624025) Materials”, “624068)” for “Reagents”

Candida albicans CaCi-2 = assay: Primary assay: C. albicans CaCi-2 growth inhibition (Alamar Blue); assay type: cell-based; for Growth Inhibition Activity, IC50 (μM), C. albicans CaCi-2, values marked ‡: less than 0.10 µM in AID 623899
Candida albicans CaCi-17 = assay: Primary assay: C. albicans CaCi-17 growth inhibition (Alamar Blue); assay type: cell-based; details: Candida albicans, read-out: Growth Inhibition Activity, IC50 (μM), C. albicans (n = 3) CaCi-17
[5] = test system: NIH-3T3 mammalian fibroblasts; assay: Counterscreen mammalian cell toxicity assay (Alamar Blue); assay type: cell-based, murine; details: for Growth Inhibition Activity, IC50 (μM), 3T3 Fibroblasts (n = 1): Table 4, 48 hours, tested up to 26 μM
Experimental: Quiescent murine fibroblasts were subjected to incubation with compounds of interest for 48 hours. Subsequent cell viability was determined via measuring Alamar Blue fluorescence.
Procedures • After overnight culture, pin compounds into wells at 100 nL/well using the CyBio CyBi-Well pinning instrument. • Return the plates to the tissue culture incubator and incubate the culture for an additional 48 hours at 37° C. under 5% CO2. • At the completion of this incubation, add Alamar Blue solution diluted 1:40 in PBS to each well (10 μL/well) to achieve a final dilution of 1:200. • Incubate the plates for an additional 2-3 hours at 37° C. under 5% CO2. • Read the Relative Fluorescence Intensity (RFU) of wells on a standard plate reader as a measure of relative cell growth. […] 4.4.

[6] = Solubility in PBS pH 7.4 with 1% DMSO; details: for solubility at 24 h: phosphate buffered saline with 1% DMSO, pH 7.4, aqueous buffer, kinetic from dmso stock
Experimental: Solubility was determined in phosphate buffered saline (PBS) pH 7.4 with 1% DMSO. Each compound was prepared in duplicate at 100 μM in both 100% DMSO and PBS with 1% DMSO. Compounds were allowed to equilibrate at room temperature with a 250 rpm orbital shake for 24 hours. After equilibration, samples were analyzed by UPLC-MS (Waters, Milford, Mass.) with compounds detected by SIR detection on a single quadrupole mass spectrometer. The DMSO samples were used to create a two-point calibration curve to which the response in PBS was fit.

[7] = Table 8, n = 3, glycerol media, 48 hours, tested up to 3 μM
[8] = Table 8, n = 3, glucose media, 48 hours, tested up to 3 μM
[9] = Nakaseomyces glabratus, ATCC2001, 48 h
[10] = Saccharomyces cerevisiae, W303, 48 h
[11] = Candida albicans, CACI2; read-out: Growth Inhibition Activity, IC50 (μM), C. albicans CaCi-2, values marked ‡
[12] = CACI17, Table 4, n = 3, 48 hours, tested up to 26 μM
[13] = Nakaseomyces glabratus, ATCC2001, Table 8, n = 3, glycerol media, 48 hours, tested up to 3 μM
[14] = Nakaseomyces glabratus, ATCC2001, Table 8, n = 3, glucose media, 48 hours, tested up to 3 μM
[15] = Saccharomyces cerevisiae, W303, Table 8, n = 3, glycerol media, 48 hours, tested up to 3 μM
[16] = Saccharomyces cerevisiae, W303, Table 8, n = 3, glucose media, 48 hours, tested up to 3 μM

| Compound | IC50 (Candida albicans CaCi-17; CACI17, 48 h) [µM] | Growth Inhibition Activity, IC50 (μM), 3T3 Fibroblasts (n = 1) [5] | IC50 (C. glabrata (ATCC 2001) [1]; [9]) [µM] | IC50 (C. glabrata (ATCC 2001) [2]; [9]) [µM] | IC50 [3, 10] [µM] | IC50 [4, 10] [µM] | solubility at 24 h [6] [µM] | IC50 (Candida albicans CaCi-2; [11]) [µM] | IC50 (Candida albicans CaCi-17; [12]) [µM] | IC50 (C. glabrata (ATCC 2001) [1]; [13]) [µM] | IC50 (C. glabrata (ATCC 2001) [2]; [14]) [µM] | IC50 [3, 15] [µM] | IC50 [4, 16] [µM] | other results |
| --- | --- | --- | --- | --- | --- | --- | --- | --- | --- | --- | --- | --- | --- | --- |
| C[C@@H]1[C@H](O)[C@@H](C)/C=C/C=C/C=C/C=C/C=C/C=C/C=C/[C@H](O[C@@H]2O[C@H](C)[C@@H](O)[C@H](N)[C@@H]2O)C[C@@H]2O[C@](O)(C[C@@H](O)C[C@@H](O)[C@H](O)CC[C@@H](O)C[C@@H](O)CC(=O)O[C@H]1C)C[C@H](O)[C@H]2C(=O)O [Amphotericin B, reference compound] | – | – | – | – | – | – | – | – | – | – | – | – | – | IC50 (C. glabrata (ATCC 2001) [1]; [7]): 0.62 µM; Growth inhibition of C. glabrata on glycerol IC50 (C. glabrata (ATCC 2001) [1]; figure legends and Tables 9, 10, 13, AID 623965): significantly inhibited; IC50 (C. glabrata (ATCC 2001) [2]; [8]): 1.2 µM; Growth inhibition of C. glabrata on glucose IC50 (C. glabrata (ATCC 2001) [2]; figure legends and Tables 9, 10, 13, AID 623967): significantly inhibited; IC50 [3, 7]: 0.26 µM; Growth inhibition of S. cerevisiae on glycerol IC50 ([3]; figure legends and Tables 9, 10, 13, AID 623969): significantly inhibited; IC50 [4, 8]: 0.38 µM; Growth inhibition of S. cerevisiae on glucose IC50 ([4]; figure legends and Tables 9, 10, 13, AID 623971): significantly inhibited |
| CCOC(=O)N1C(=O)C2(CCCCC2)N(c2ccccc2)C1=S [compound 56604821] | 4.2 | Inactive | 0.026 | > 3 | 0.015 | > 3 | 1.6 (≈ 0.532 µg/mL) | – | – | – | – | – | – | IC50 (Candida albicans CaCi-2; Candida albicans, CACI2, 48 h, read-out: Growth Inhibition Activity, IC50 (μM), C. albicans (n = 3) CaCi-2): 0.2 µM |
| CCOC(=O)N1C(=O)C2(CCCCC2)N(c2ccc(C#N)cc2)C1=S [compound 56604847] | – | Inactive | – | – | – | – | < 1 | 0.08 | 1.8 | 0.033 | > 3 | 0.004 | > 3 | – |
| CCOC(=O)N1C(=O)C2(CCCCC2)N(c2ccc(F)cc2)C1=S [compound 56604860] | – | Inactive | – | – | – | – | – | 0.04 | 1 | 0.011 | > 3 | 0.004 | > 3 | PBS Solubility ([6]; Table 4, PBS pH 7.4 with 1% DMSO, 24 hours, room temperature): 1.1 µM |
| CCOC(=O)N1C(=O)C2(CCCCC2)N(c2ccc(Cl)cc2)C1=S [compound 56604865] | 1.4 | – | 0.022 | > 3 | 0.006 | > 3 | < 1 | – | – | – | – | – | – | IC50 (Candida albicans CaCi-2; Candida albicans, CACI2, read-out: Growth Inhibition Activity, IC50 (μM), C. albicans CaCi-2, values marked ‡): 0.06 µM; IC50 ([5]; Mus musculus, NIH3T3, 48 h, read-out: Growth Inhibition Activity, IC50 (μM), 3T3 Fibroblasts (n = 1)): 22.3 µM |

Reference: US9944607B2, “Thiohydantoin derivatives and uses thereof” (Whitehead Institute for Biomedical Research, priority 2012, dated 2018)
